For experiment [1], the target named is Potassium voltage-gated channel subfamily KQT member 2 (Rattus norvegicus, UniProt O88943, W236L). The experiment can be described thus: KCNQ2 channel potentiators, dose response, mechanism study for KCNQ2 potentiator project, cell-based, automated electrophysiology (AID 2603). In kind it is functional.
Experiment [2] deals with BJ. The experiment can be described thus: cytotoxicity toward BJ-TERT-LT-ST fibroblasts, dose response, cell-based, RAS-independent, luminescence (AID 1935).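 Also: BJ fibroblasts immortalized with TERT plus LT and ST oncogenes.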 In kind it is functional. The following applies: Homo sapiens.
Experiment [3] has as its target Heat shock protein HSP 90-alpha (Homo sapiens, UniProt P07900). In kind it is functional, organism-based.
Experiment [4] deals with T1, Zinc finger protein mex-5 (Caenorhabditis elegans, UniProt Q9XUB2).
T1 sequence (Q9XUB2 whole entry): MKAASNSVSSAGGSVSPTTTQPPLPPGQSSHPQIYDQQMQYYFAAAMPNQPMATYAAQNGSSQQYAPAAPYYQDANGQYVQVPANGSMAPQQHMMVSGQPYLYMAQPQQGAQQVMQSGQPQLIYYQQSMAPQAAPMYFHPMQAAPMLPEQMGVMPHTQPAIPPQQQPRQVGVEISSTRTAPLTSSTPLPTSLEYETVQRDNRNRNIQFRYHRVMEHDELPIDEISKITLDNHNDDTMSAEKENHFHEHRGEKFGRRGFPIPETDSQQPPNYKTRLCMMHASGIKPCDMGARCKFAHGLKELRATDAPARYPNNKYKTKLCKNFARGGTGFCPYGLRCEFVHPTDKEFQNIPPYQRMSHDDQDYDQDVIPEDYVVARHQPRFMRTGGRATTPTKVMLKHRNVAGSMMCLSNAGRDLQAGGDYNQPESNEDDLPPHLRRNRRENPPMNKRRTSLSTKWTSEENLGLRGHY
The experiment can be described thus: MEX-5/TCR-2 RNA interaction inhibitors, dose response, biochemical, C. elegans, fluorescence polarization (AID 1960).

Experiment [5] concerns the target T2, Beta-galactosidase (Escherichia coli, UniProt Q8VNN2). The experiment can be described thus: Dose response counterscreen for EBI2 assay utilizing the enzyme, b-galactosidase. The class given is functional.
Experiment [6] has as its system BJ. The experiment can be described thus: cytotoxicity toward BJ-TERT fibroblasts, dose response, cell-based, RAS-independent, luminescence (AID 1933). In kind it is functional. The following applies: Homo sapiens.
Experiment [7] relates to BJ. The experiment can be described thus: cells. The class given is functional, cell-based. The following applies: Homo sapiens.
A short description of experiment [8]: luciferase reporter signal reduction – luminescence, H4-C neuroglioblastoma cells, dose response (AID 2458).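 Also: H4 neuroglioblastoma cells stably carrying a luciferase reporter gene fusion.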 In kind it is functional, cell-based.
A short description of experiment [9]: inhibitors of SNCA 5'UTR-driven translation, confirmation, luminescence, H4 neuroglioblastoma cells, dose confirmation (AID 2454).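 Also: H4 neuroglioblastoma cells carrying an alpha-synuclein 5'UTR luciferase reporter; potency for inhibition of the luciferase signal.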 In kind it is functional, cell-based.
The target of experiment [10] is T2, Beta-galactosidase. The class given is functional.
Experiment [11] relates to BJ. The experiment can be described thus: cytotoxicity toward Ras-transformed BJeLR fibroblasts, dose response, cell-based, alamar blue fluorescence, cherrypicked samples (AID 2631).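 Also: confirmatory dose-response assay in RAS-dependent BJ fibroblasts engineered with TERT, LT and ST, with cytotoxicity read by fluorescence.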 The class given is functional. As to conditions: Homo sapiens. For orientation: The colour change of resazurin is a common sign of viable cells or microbes.
In a further experiment the target is Nonstructural protein 1 (Influenza A virus, UniProt Q194T2). The class given is functional, Influenza A virus (A/California/07/2009(H1N1)).
Nonstructural protein 1, sequence (Q194T2 whole entry): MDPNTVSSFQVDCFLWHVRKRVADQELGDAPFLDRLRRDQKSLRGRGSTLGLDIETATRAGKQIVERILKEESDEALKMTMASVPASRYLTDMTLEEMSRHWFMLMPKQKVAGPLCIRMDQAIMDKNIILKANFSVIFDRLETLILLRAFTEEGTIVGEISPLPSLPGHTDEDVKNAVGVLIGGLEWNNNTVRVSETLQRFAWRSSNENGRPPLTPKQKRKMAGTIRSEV
Experiment [12] deals with T3, Kappa-type opioid receptor (Homo sapiens, UniProt P41145). In kind it is functional.
T3 sequence (P41145 whole entry): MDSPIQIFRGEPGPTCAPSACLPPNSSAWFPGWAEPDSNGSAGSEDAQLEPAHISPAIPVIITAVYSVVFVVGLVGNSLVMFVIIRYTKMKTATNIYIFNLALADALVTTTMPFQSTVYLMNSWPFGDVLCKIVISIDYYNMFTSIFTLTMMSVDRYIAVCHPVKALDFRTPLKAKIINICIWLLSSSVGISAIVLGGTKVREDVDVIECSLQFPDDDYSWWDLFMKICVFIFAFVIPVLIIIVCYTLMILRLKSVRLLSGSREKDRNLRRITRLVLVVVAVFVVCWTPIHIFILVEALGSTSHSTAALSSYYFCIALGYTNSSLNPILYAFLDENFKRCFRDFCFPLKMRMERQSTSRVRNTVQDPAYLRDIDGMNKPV
A short description of experiment [13]: Luminescence Cell-Based Dose Response HTS to Identify Inhibitors of 5'UTR Stem-Loop Driven Prion Protein mRNA Translation in H4 Neuroglioblastoma Cells. [Related pubchem assays: 1827 (Project Summary), 1813 (Primary HTS)]. In kind it is functional.
Experiment [14] has as its target T3, Kappa-type opioid receptor. The class given is functional. This is another data set of the same source.
Experiment [15] can be described thus: inhibitors of firefly luciferase expression or activity, dose response, H4 neuroglioma cells, luminescence (AID 1990). In kind it is functional, cell-based.
Experiment [16] concerns the target T4, RNA-binding protein pos-1 (Caenorhabditis elegans, UniProt G5EF15).
T4 sequence (G5EF15 whole entry): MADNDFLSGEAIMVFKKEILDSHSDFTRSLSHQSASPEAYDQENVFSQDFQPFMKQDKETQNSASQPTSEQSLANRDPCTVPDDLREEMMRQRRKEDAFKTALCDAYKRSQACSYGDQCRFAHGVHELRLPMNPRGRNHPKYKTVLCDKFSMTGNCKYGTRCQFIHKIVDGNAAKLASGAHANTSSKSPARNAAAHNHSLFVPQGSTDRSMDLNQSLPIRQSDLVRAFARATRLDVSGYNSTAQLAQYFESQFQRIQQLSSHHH
The experiment can be described thus: inhibitors of POS-1/mex-3 RNA binding, dose response, biochemical, fluorescence polarization (AID 1964).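 Also: purified POS-1 fused to maltose binding protein made in E. coli; potency of compounds blocking POS-1 binding to fluorescent RNA.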

The nature of a further experiment: cells. The class given is functional, cell-based.
A short description of experiment [17]: Luminescence-based dose response cell-based high throughput screening assay for cytotoxic compounds using the IEC-6 intestinal epithelial cell line. [Related pubchem assays: 1858 (Summary AID.), 1825 (Counterscreen.), 1907 (Confirmation screen.)]. The class given is functional.
A short description of experiment [18]: inhibitors of SNCA 5'UTR-driven reporter translation, confirmation, H4 neuroglioma cells, luminescence (AID 1988). The class given is functional, cell-based.
Experiment [19] can be described thus: cytotoxicity toward DRD oncogenic fibroblasts, dose response, cell-based, non-viral oncogenic, luminescence (AID 1934). In kind it is functional. The following applies: Homo sapiens.
The target of the next experiment is Large T antigen (Simian virus 40, UniProt P03070). In kind it is functional, Betapolyomavirus macacae.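 Also: Confirmatory-stage PubChem screen for compounds that inhibit SV40 T antigen.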
Large T antigen, sequence (P03070 whole entry): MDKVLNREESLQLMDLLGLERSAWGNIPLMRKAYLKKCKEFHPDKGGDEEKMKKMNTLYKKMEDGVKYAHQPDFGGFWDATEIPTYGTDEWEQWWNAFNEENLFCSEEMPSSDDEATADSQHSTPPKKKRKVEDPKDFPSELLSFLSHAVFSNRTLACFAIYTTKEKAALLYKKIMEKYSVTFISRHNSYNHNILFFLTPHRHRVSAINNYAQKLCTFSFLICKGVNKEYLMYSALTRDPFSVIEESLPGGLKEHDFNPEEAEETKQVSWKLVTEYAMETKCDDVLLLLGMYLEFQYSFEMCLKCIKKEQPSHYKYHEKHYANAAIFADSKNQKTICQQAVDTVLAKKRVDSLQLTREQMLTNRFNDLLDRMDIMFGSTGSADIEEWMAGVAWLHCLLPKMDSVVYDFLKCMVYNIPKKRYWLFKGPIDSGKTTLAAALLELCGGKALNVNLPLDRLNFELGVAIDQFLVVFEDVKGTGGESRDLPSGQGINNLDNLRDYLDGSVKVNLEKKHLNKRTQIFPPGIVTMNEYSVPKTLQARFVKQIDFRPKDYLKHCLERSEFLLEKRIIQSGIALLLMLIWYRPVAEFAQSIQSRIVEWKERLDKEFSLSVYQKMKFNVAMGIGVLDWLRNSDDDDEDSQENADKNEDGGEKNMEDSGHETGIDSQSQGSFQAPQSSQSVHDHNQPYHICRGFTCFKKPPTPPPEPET
A short description of experiment [20]: M. tuberculosis growth inhibition, HTS (AID 449762). The class given is functional.
In another experiment the target is Ephrin type-A receptor 4 (Mus musculus, UniProt Q03137). The experiment can be described thus: inhibitors of EphA4 binding to KYL peptide, primary screen, biochemical, colorimetric, mouse EphA4 (AID 689). The class given is functional.
Ephrin type-A receptor 4, sequence (Q03137 whole entry): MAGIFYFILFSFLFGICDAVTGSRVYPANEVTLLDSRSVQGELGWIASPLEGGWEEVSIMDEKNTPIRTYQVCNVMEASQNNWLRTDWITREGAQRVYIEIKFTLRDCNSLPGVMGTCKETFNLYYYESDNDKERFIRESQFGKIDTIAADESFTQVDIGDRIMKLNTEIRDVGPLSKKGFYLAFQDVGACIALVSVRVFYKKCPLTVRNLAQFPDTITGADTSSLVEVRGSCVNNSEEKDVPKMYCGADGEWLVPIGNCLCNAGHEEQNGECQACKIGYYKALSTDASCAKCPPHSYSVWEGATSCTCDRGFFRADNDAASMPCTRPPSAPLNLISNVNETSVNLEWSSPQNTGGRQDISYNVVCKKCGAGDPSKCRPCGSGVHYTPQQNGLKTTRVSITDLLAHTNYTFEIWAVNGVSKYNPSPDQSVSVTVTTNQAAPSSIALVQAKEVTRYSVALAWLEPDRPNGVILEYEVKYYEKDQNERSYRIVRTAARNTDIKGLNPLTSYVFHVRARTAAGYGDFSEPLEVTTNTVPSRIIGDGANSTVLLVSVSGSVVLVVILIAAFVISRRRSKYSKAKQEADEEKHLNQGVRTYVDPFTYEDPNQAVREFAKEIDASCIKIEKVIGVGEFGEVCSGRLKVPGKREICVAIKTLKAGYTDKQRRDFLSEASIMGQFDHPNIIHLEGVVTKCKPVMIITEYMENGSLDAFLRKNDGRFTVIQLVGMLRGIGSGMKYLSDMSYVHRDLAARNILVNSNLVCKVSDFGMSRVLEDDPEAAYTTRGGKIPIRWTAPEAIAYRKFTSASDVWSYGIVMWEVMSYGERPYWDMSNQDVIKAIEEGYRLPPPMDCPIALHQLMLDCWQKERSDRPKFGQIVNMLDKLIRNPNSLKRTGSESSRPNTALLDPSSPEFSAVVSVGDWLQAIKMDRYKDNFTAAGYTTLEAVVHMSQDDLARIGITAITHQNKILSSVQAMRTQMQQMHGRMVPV
The nature of experiment [21]: inhibitors of intracellular T. cruzi replication, confirmation, NIH3T3 host cells, beta-gal luminescence (AID 2044).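 Also: intracellular parasites grown in NIH/3T3 mouse fibroblasts as host cells; luminescent beta-galactosidase reporter signal from transgenic T. cruzi replicating inside host cells; inhibitors lower the luminescence signal.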 In kind it is functional, cell-based.
The target in experiment [22] is T5, Heat shock factor protein 1 (Mus musculus, UniProt P38532).
T5 sequence (P38532 whole entry): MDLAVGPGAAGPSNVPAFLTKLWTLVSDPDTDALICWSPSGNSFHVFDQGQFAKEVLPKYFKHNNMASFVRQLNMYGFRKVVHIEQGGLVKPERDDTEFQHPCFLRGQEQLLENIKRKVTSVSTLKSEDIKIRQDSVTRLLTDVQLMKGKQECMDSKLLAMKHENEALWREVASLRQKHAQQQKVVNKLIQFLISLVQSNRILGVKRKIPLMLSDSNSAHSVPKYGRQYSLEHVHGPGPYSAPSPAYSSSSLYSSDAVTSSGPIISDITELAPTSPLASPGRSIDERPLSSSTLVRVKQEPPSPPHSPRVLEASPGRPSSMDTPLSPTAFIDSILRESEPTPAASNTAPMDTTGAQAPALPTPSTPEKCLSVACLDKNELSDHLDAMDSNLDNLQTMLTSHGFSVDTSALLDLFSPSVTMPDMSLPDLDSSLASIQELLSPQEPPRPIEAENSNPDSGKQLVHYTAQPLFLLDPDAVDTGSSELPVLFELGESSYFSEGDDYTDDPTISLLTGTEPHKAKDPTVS
The experiment can be described thus: inhibition of MG132-induced HSE-luciferase signal, confirmation, cell-based, NIH3T3, luminescence, dose retest (AID 2382).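 Also: NIH3T3 fibroblasts with HSF1-driven luciferase reporter stressed by proteasome inhibitor MG132; luminescence from HSF1-driven luciferase expression after 8 hours of MG132 stress.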 In kind it is functional.

Experiment [23] concerns the target Mitogen-activated protein kinase 10 (Homo sapiens, UniProt P53779). The experiment can be described thus: Dose response biochemical screening assay for inhibitors of c-Jun N-Terminal Kinase 3 (JNK3). [Related pubchem assays: 746 ].
Experiment [24] can be described thus: cytotoxicity toward NIH3T3 fibroblasts, dose response, counter-screen, cell-based, ATP luminescence, mouse fibroblasts (AID 2010).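 Also: cells exposed to compound for about 90 hours before reading.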 The class given is functional.
Experiment [25] in a line: Luminescence Cell-Based Dose Confirmation to Identify Activators of 5'UTR Stem-Loop Driven Alpha-Synuclein mRNA Translation in H4 Neuroglioblastoma Cells. [Related pubchem assays: 1829 (Project Summary), 1814 (Primary HTS)]. The class given is functional.
Experiment [26] in a line: Luminescence Cell-Based Dose Response to Identify Activators of 5'UTR Stem-Loop Driven Prion Protein mRNA Translation in H4-C Neuroglioblastoma Cells. [Related pubchem assays: 1829 (Project Summary), 1814 (Primary HTS)]. The class given is functional.
Experiment [27] is described as follows: Luminescence Cell-Based Dose Response to Identify Activators of Luciferase Translation or Activity in H4-C Neuroglioblastoma Cells. [Related pubchem assays: 1829 (Project Summary), 1814 (Primary HTS)]. The class given is functional.
A short description of experiment [28]: Luminescence Cell-Based Dose Response HTS to Identify Activators of Luciferase Translation or Activity in H4 […] Cells. [Related pubchem assays: 1829 (Project Summary), 1814 (Primary HTS)]. In kind it is functional.
A further experiment concerns H4. The experiment can be described thus: Luminescence Cell-Based Dose Response HTS to Identify Activators of 5'UTR Stem-Loop Driven Prion Protein mRNA Translation in H4 Neuroglioblastoma Cells. [Related pubchem assays: 1829 (Project Summary), 1814 (Primary HTS)]. In kind it is functional. As to conditions: Homo sapiens.
A further experiment deals with Cytochrome P450 3A4 (Homo sapiens, UniProt P08684).
Cytochrome P450 3A4, sequence (P08684 whole entry): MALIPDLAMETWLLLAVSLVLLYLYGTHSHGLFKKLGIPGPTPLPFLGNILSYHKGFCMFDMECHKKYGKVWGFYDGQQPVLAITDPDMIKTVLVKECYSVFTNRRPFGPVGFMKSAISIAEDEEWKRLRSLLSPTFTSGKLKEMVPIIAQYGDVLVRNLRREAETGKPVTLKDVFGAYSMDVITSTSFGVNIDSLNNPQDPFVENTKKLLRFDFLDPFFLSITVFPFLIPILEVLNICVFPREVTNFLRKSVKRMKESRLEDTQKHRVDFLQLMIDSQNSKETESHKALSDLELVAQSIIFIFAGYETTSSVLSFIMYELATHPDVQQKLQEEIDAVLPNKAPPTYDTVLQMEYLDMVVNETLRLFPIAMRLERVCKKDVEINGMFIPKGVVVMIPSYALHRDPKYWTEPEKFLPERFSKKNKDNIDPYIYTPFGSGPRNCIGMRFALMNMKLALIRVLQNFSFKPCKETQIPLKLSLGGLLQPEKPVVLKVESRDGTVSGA
The target in the next experiment is T6, Cytochrome P450 1A2 (Homo sapiens, UniProt P05177).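 Also: PubChem cytochrome P450 panel assay, CYP1A2 panel member.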
T6 sequence (P05177 whole entry): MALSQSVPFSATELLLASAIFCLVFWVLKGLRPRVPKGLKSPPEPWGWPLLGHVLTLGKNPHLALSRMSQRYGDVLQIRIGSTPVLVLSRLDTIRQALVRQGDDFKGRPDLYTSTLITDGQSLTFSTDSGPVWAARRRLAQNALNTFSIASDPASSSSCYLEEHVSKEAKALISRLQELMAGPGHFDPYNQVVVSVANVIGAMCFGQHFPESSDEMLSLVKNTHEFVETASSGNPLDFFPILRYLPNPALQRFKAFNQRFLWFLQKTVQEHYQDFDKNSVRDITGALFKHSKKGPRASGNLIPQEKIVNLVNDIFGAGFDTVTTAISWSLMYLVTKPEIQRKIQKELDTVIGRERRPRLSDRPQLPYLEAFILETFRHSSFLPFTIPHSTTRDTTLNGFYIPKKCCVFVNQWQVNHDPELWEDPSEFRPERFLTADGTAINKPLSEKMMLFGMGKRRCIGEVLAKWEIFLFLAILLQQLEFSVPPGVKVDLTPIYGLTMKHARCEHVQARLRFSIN

Experiment [29] in a line: Luminescence Cell-Based Dose Retest to Confirm Inhibitors of Cancer Stem Cells. [Related pubchem assays (depositor defined):AID2717, AID2721]. As to conditions: Homo sapiens. The class given is functional.

Active and inactive are the calls of the source. Rule as the data show it, for most assays here: actives have a measured EC50 and inactives only a lower limit.

T2 sequence (Q8VNN2 whole entry): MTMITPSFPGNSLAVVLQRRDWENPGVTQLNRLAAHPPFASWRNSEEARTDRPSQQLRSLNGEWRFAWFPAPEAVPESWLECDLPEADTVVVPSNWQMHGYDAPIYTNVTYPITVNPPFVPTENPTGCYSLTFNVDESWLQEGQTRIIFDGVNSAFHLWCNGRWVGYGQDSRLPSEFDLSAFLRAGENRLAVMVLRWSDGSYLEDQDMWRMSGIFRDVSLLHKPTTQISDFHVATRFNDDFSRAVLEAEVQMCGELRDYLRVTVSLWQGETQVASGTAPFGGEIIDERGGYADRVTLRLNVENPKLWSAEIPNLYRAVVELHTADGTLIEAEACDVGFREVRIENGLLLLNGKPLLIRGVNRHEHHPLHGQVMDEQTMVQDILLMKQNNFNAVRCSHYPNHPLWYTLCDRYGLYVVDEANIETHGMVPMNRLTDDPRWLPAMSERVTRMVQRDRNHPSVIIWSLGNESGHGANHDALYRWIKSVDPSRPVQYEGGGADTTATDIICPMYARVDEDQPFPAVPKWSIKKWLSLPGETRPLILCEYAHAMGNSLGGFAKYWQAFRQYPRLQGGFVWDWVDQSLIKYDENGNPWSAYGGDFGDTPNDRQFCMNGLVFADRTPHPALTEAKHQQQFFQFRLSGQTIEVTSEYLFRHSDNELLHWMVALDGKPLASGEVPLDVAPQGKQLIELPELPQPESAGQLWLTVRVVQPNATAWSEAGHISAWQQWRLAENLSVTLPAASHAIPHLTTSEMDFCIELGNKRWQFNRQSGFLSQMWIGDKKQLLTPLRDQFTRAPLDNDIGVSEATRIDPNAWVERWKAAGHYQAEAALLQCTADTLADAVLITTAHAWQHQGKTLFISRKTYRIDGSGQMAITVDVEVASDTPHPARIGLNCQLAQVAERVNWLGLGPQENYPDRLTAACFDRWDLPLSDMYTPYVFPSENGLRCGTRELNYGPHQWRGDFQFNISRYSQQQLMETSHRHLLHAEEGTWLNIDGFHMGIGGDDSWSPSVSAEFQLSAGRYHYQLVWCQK
Mitogen-activated protein kinase 10, sequence (P53779 whole entry): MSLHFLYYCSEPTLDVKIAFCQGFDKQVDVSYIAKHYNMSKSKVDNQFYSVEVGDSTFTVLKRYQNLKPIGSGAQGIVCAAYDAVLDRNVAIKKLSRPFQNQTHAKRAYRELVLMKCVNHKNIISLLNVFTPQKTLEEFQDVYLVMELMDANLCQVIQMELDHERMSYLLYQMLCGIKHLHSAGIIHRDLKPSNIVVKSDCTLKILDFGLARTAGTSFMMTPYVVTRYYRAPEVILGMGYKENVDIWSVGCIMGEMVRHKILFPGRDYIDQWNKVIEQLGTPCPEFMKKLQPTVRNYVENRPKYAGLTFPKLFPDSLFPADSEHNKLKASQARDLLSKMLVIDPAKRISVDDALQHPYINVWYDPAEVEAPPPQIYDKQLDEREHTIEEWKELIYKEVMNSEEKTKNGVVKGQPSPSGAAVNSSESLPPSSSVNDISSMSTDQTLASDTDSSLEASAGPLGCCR

As to `O=C(Nc1cccc(OC(F)(F)F)c1)c1ccc(Br)o1`, the EC50 (commonly the concentration needed to bring the measured effect to its halfway point) in experiment [1] was 13800 nM (active).

Consider `C/C(=N\Nc1ncnc2sc(C)c(C)c12)c1ccccn1`, for which the EC50 was 754 nM (inconclusive) with BJ [2]; 46700 nM (inconclusive) in experiment [4]; 711 nM (inconclusive) in the experiment on BJ [6]; 966 nM (inconclusive) with BJ [7]; 222 nM (active) in experiment [8]; 378 nM (active) in experiment [9]. The EC50 was > 31500 nM (inactive) at Beta-galactosidase [10]; < 104 nM (active) in the experiment on BJ [11]; < 100 nM (active) in experiment [13]; 244 nM (active) in experiment [15]; 23300 nM (inconclusive) in [16]; 472 nM (active) in the experiment “cells”. Also, the EC50 in [18] is < 100 nM (active); in [19], 2020 nM (inconclusive). For the same compound, in experiment [3], the AC50 (as a rule, the concentration at which the activity in the assay is half-maximal) is 2420 nM (active). Further, the IC50 (as a rule, the concentration at which inhibition is half-maximal) is > 80000 nM (inactive) at Beta-galactosidase [5]; 19300 nM (active) at Nonstructural protein 1; greater than 32000 nM in experiment [12]; > 31500 nM (inactive) in experiment [14]; 76.2 nM (active) in experiment [17].

In the case of `Nc1ccc2c(c1)Cc1ccccc1-2`, the IC50 was 3520 nM (active) on Large T antigen and > 100000 nM (active) in [20].

As to `CC(=O)Nc1ccc(NC2=Nc3ccccc3N3C2=Nc2c(c(C)nn2-c2ccccc2)C3c2ccccc2)cc1` (stereo not drawn), the IC50 on Ephrin type-A receptor 4 was 16600 nM (active).

On to `N#Cc1c(N)nc(SCc2ccncc2)c(C#N)c1-c1cccs1`, for which the EC50 in experiment [4] was > 300000 nM (not active); in experiment [21], 145 nM (active); in experiment [22] it was > 195000 nM (not active); in experiment [16] it was > 300000 nM (not active); in [24], 17100 nM (active). In [23], the IC50 was 54800 nM (not active).

As to `O=C(Nc1ccc(Cl)cc1)c1ccc(OCC2CCCO2)cc1` (stereo not drawn), the EC50 in experiment [25] is > 12000 nM (not active); in experiment [26], 924 nM (active); in experiment [27], 301 nM (active).

As to `O=c1cccccc1NN=C1CCCCCC1`, the EC50 in experiment [25] is 446 nM (active); in [26], 608 nM (active); in [28], < 100 nM (active); in the experiment on H4, > 120000 nM (not active); in experiment [27], 385 nM (active).

Regarding `COc1cc(/C=C2\SC(=S)N(Nc3ccccc3)C2=O)cc(OC)c1OC`, the figures for the AC50 at Cytochrome P450 3A4 and on Cytochrome P450 1A2 were 15800 nM (inconclusive) and 7080 nM (inconclusive), respectively. In addition, the IC50 on Ephrin type-A receptor 4 is 2640 nM (active).

In the case of `CCCCCCSc1nsc(NC(=O)CC(C)C)n1`, in experiment [29], the AC50 was 2020 nM (active). In addition, the IC50 in [20] is > 100000 nM (active).
